Source: patent US4705803A, “Method of improving resorption of injected antibacterially active substances or combinations” (Boehringer Ingelheim Vetmedica GmbH, priority 1982, dated 1987)

Experiments:
[1] = acute toxicity (LD50) in the mouse; conditions: in vivo, ip
Excerpt: For example, the acute toxicity (LD50) in the mouse is […]

[2] = physchem; conditions: water
[3] = test system: respiratory tract secretion; conditions: cited from earlier work; for concentration of solids in the fluid of the respiratory tract / quantity of secretion / viscosity of the secretion: human and veterinary medicine; for specific weight: solids/fluid of the respiratory tract
[4] = maximum solubility in water

For CN(Cc1cc(Br)cc(Br)c1N)C1CCCCC1.Cl [Compound A, N-(2-amino-3,5-dibromo-benzyl)-N-methyl-cyclohexylamine hydrochloride], the LD50 [1] is listed as over 400 mg/kg, the solubility [2] is listed as 200 to 5000 µg/mL and the “concentration of solids in the fluid of the respiratory tract” value [3] is listed as “reduction”. For the same compound, the quantity of secretion [3] was “significant increase”, the “viscosity of the secretion” value [3] was “decrease” and the specific weight [3] was “reduction”.
For Cl.Nc1c(Br)cc(Br)cc1CN[C@H]1CC[C@H](O)CC1 [Compound B, N-(2-amino,3,5-dibromo-benzyl)-trans-4-hydroxy-cyclohexylamine hydrochloride], the LD50 [1] is listed as 268 mg/kg, the solubility [2] is listed as 16600 µg/mL and the “concentration of solids in the fluid of the respiratory tract” value [3] is listed as “reduction”. For the same compound, the quantity of secretion [3] was “significant increase”, the “viscosity of the secretion” value [3] was “decrease” and the specific weight [3] was “reduction”.
In the case of Cl.Oc1c(Br)cc(Br)cc1CN[C@H]1CC[C@H](O)CC1 [Compound C, N-(3,5-dibromo-2-hydroxy-benzyl)-trans-4-hydroxycyclohexylamine hydrochloride], the LD50 [1] is reported as over 800 mg/kg and the solubility [4] is reported as 100 to 1000 µg/mL.
